Results on six compounds are retold here after patent publication US5516803A, “Composition comprising a tramadol material and a non-steroidal anti-inflammatory drug” (priority 1995, dated 1996).

The conditions of series [1]: cited from earlier work; for intensity of pain relieved / tolerance, addiction and toxicity: compared with opioid analgesics; for opioid side effects: Goodman and Gilman's, 8th edition.
The subject of series [2] is acetylcholine-induced abdominal constriction. Nature of the series: prevention of acetylcholine-induced abdominal constriction in mice (analgesic activity, oral). It counts as in vivo, male CD1 mice. On the procedure: […]. The mice were all dosed orally with tramadol hydrochloride (calculated as the base), which was completely dissolved in distilled water, and ibuprofen (calculated as the base), which was completely dissolved in distilled water or in distilled water containing 2% by volume of Tween 80 containing 100% polysorbate 80. The dosing volume was 10 mL/kg.
The procedure used in detecting and comparing the analgesic activity of different classes of analgesic drugs for which there is a good correlation with human efficacy is the prevention of acetylcholine-induced abdominal constriction in mice (H. Collier et al., Br. J. Pharmacol., 32, 295 (1968)).
Mice, incubated with various doses of tramadol hydrochloride alone, ibuprofen alone, combined doses of tramadol hydrochloride and ibuprofen, or vehicle such as distilled water, or distilled water containing 2% by volume of Tween 80, were injected intraperitoneally with a challenge dose of acetylcholine bromide. […]. The mice were observed 10 minutes for the presence or absence of the abdominal constriction response beginning immediately after receiving the acetylcholine dose, which was 30 minutes after receiving the oral administration of tramadol hydrochloride,ibuprofen, combined doses of tramadol hydrochloride and ibuprofen, or vehicle. Each mouse was used only once.
The analysis of possible superadditivity for the compositions at each fixed ratio was determined as disclosed by R. J. Tallarida et al., Life Sci., 45, 947 (1989). This procedure involved the determination of the total amount in the mixture that is required to produce a specified level of effect, such as 50% (ED50mix), and the corresponding total amount that would be expected under simple additivity (ED50add). Where it was established that ED50mix <ED50add for a specific fixed-ratio, then that composition ratio was superadditive. Both the quantities ED50mix and ED50add were random variables; ED50mix was estimated from the dose-response curve for a specific fixed-ratio; ED50add was obtained by combining the ED50 estimates for the two drugs under additivity. ED50mix was then compared to ED50add via a Student's t-test. […]. The interaction between tramadol and ibuprofen was determined at precise dosage ratios of tramadol hydrochloride and ibuprofen. Multiple (typically 4-6) coded doses of each selected combination were studied for analgesic effectiveness after 30 minutes using an experimental design which permitted the complete randomization of the separate dosage forms tested.
In FIG. 1, the diagonal line joining the ED50 values of the two drugs given separately represents the simple additivity of effects at different component ratios. The dotted lines adjacent to the diagonal line define the 95% confidence interval. ED50 values falling under the curve (between the line and the origin) indicate superadditivity, i.e., unexpected enhancement of effects. The diagonal dashed lines radiating from the origin represent the dose ratios of ibuprofen to tramadol hydrochloride used in mice receiving the combined drug dosages. The bars through the ED50 points for the tramadol and ibuprofen composition represent the 95% confidence intervals of the ED50 value. […]

For `CC(C)Cc1ccc(C(C)C(=O)O)cc1` (stereo not drawn) [ibuprofen, 2-(p-isobutylphenyl)propionic acid], the “intensity of pain relieved” value in series [1] is recorded as “only useful in relieving pain of moderate intensity”. Besides, in series [1], the “tolerance, addiction and toxicity” value is “not subject to the tolerance, addiction and toxicity of the opioid analgesics”. For the same compound, the ED50 in series [2] (Mus musculus, 0.5 h, drug alone, oral, 30 min, range in parentheses 95% CI) is 33.5 mg/kg. Further, the analgesia was 2/15 in series [2] (tramadol 0, ibuprofen 10 mg/kg, p.o., 30 min); 4/15 in series [2] (tramadol 0, ibuprofen 20 mg/kg, p.o., 30 min); 8/15 in series [2] (tramadol 0, ibuprofen 40 mg/kg, p.o., 30 min); 13/15 in series [2] (tramadol 0, ibuprofen 80 mg/kg, p.o., 30 min); 14/15 in series [2] (tramadol 0, ibuprofen 160 mg/kg, p.o., 30 min).
With `COc1cccc(C2(O)CCCCC2CN(C)C)c1` (single isomer, unassigned) [tramadol, (1R, 2R or 1S, 2S)-2-[(dimethylamino)methyl]-1-(3-methoxyphenyl)cyclohexanol], the “ED50 value for drug alone” value in series [2] (drug alone, oral, 30 min, range in parentheses 95% CI) is reported as 5.5(4.8-6.4) mg/kg. Moreover, in series [2] (p.o., tramadol component (calculated as base), Table I), the “ED50 at 30 min (95% CI's), Tramadol” value is given as 5.5 mg/kg.
On to `COc1ccc2c3c1O[C@H]1C(=O)CC[C@@]4(O)[C@@H](C2)N(C)CC[C@]314` [oxycodone], for which the opioid side effects entry in series [1] was “respiratory depression, constipation, tolerance and abuse liability”.
For `CC(=O)Oc1ccccc1C(=O)O` [aspirin], in series [1], the “intensity of pain relieved” value is “only useful in relieving pain of moderate intensity”; the “tolerance, addiction and toxicity” value was “not subject to the tolerance, addiction and toxicity of the opioid analgesics”.
On to `COc1ccc2c3c1O[C@H]1[C@@H](O)C=C[C@H]4[C@@H](C2)N(C)CC[C@@]341` [codeine], for which the opioid side effects entry in series [1] is “respiratory depression, constipation, tolerance and abuse liability”.
On to `COc1ccc2c3c1O[C@H]1C(=O)CC[C@H]4[C@@H](C2)N(C)CC[C@]314` [hydrocodone], for which the opioid side effects entry in series [1] was “respiratory depression, constipation, tolerance and abuse liability”.

As usually defined, the ED50 is the dose that gives a 50% effect, or the effect in half of the subjects.
